Source: ChEMBL document CHEMBL1140746, “Cdc7 kinase inhibitors: pyrrolopyridinones as potential antitumor agents. 1. Synthesis and structure-activity relationships” (J Med Chem, 2008)

How the values were obtained:
A2780 = assay: Antiproliferative activity against human A2780 cells after 72 hrs; assay type: functional, cell-based; settings: A2780, 72 h
[1] = target: Cell division cycle 7-related protein kinase (Homo sapiens, UniProt O00311)
Sequence of Cell division cycle 7-related protein kinase (O00311 whole entry): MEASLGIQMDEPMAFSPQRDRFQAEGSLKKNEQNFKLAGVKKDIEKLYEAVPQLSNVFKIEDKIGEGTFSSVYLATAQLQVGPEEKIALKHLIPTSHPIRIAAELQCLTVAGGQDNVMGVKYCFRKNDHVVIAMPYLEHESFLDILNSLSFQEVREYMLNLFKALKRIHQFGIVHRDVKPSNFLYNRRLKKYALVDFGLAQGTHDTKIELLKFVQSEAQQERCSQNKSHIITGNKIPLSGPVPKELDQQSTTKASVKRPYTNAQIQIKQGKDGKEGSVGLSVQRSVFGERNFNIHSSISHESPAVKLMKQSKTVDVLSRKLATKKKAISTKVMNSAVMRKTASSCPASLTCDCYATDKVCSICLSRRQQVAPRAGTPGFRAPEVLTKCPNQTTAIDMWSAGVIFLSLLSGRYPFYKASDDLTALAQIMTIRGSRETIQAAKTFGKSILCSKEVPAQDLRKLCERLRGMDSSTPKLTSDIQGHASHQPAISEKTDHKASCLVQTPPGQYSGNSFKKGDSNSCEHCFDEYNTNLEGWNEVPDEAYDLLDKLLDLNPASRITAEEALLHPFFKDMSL

IC50 (A2780) | IC50 [1] | SMILES
5.5 µM | 0.02 µM | O=C1NCCc2[nH]c(-c3ccncn3)cc21
 | 0.16 µM | O=C1NCCc2c1cc(-c1ccncc1)n2CC(F)(F)F
 | 0.008 µM | CCn1c(-c2ccnc(N)n2)cc2c1CCNC2=O
 | 0.22 µM | O=C1NCCc2[nH]c(-c3ccnc(NCc4ccccc4)n3)cc21
 | 1.4 µM | CC(C)C(=O)Nc1nccc(-c2cc3c([nH]2)CCNC3=O)n1
 | 0.004 µM | Nc1nccc(-c2cc3c(n2CC2CC2)CCNC3=O)n1
 | 0.003 µM | Nc1nccc(-c2cc3c(n2CCF)CCNC3=O)n1
 | 0.323 µM | CC(=O)Nc1nccc(-c2cc3c([nH]2)CCNC3=O)n1
 | 0.21 µM | O=C1NCCn2nc(-c3ccncc3)cc21
 | 0.201 µM | O=C1NCCc2oc(-c3ccncc3)cc21
4.7 µM | 0.027 µM | O=C1NCc2[nH]c(-c3ccncc3)cc21
 | 0.158 µM | O=C1NCCCc2[nH]c(-c3ccncc3)cc21
 | 0.067 µM | CCn1c(-c2ccncc2)cc2c1CCNC2=O
 | 3.3 µM | O=C1NCCc2c1cc(-c1ccncc1)n2CCO
 | 0.138 µM | Nc1nccc(-c2cc3c(n2CCO)CCNC3=O)n1
 | 0.042 µM | CC(C)n1c(-c2ccnc(N)n2)cc2c1CCNC2=O
 | 0.023 µM | CCCCn1c(-c2ccnc(N)n2)cc2c1CCNC2=O
 | > 5 µM | Nc1nccc(-c2cc3c(n2-c2ccccc2)CCNC3=O)n1
 | 0.29 µM | Nc1nccc(-c2cc3c(n2Cc2ccccc2)CCNC3=O)n1
 | 0.259 µM | CCCNc1nccc(-c2cc3c([nH]2)CCNC3=O)n1
 | 0.636 µM | CC(C)CNc1nccc(-c2cc3c([nH]2)CCNC3=O)n1
 | 0.655 µM | O=C1NCCc2[nH]c(-c3ccnc(NCC4CCCCC4)n3)cc21
 | 0.404 µM | Cn1c(-c2ccncc2)cc2c1CCNC2=O

IC50 (A2780) | IC50 [1] | SMILES
0.2 µM | 0.009 µM | O=C1NCCc2[nH]c(-c3ccncc3F)cc21
> 10 µM | 0.014 µM | O=C1NCCc2[nH]c(-c3ccnc4[nH]ccc34)cc21
0.8 µM | 0.004 µM | Nc1ncc(Br)c(-c2cc3c([nH]2)CCNC3=O)n1
 | > 5 µM | Nc1nccc(-c2c[nH]c3c2C(=O)NCC3)n1
 | 0.178 µM | O=C1NCCc2[nH]c(-c3ncnc4[nH]cnc34)cc21
 | > 5 µM | O=C1NCCc2[nH]c(-c3ccccc3)cc21
 | > 5 µM | O=C1NCCc2[nH]ccc21
> 10 µM | 0.028 µM | Nc1cc(-c2cc3c([nH]2)CCNC3=O)ccn1
 | > 5 µM | O=C1NCCc2[nH]c(-c3cccnc3)cc21
 | 0.045 µM | Cc1c(-c2ccncc2)[nH]c2c1C(=O)NCC2
 | 0.863 µM | O=CN1CCc2[nH]c(-c3ccncc3)cc2C1=O
 | > 5 µM | Nc1nccc(-c2cc3c(n2C2CCCCC2)CCNC3=O)n1
 | 0.088 µM | Cn1c(-c2ccnc(N)n2)cc2c1CCNC2=O
 | 0.012 µM | CCCn1c(-c2ccnc(N)n2)cc2c1CCNC2=O
 | 0.014 µM | Nc1nccc(-c2cc3c(n2C2CCC2)CCNC3=O)n1
0.1 µM | 0.002 µM | O=C1NCCc2[nH]c3c(ccc4cnccc43)c21
 | 0.013 µM | CC(C)Cn1c(-c2ccnc(N)n2)cc2c1CCNC2=O
 | 0.047 µM | Nc1nccc(-c2cc3c(n2CCCC(F)(F)F)CCNC3=O)n1
 | 0.12 µM | CN1CCC(n2c(-c3ccnc(N)n3)cc3c2CCNC3=O)CC1
 | 0.262 µM | O=C(Nc1nccc(-c2cc3c([nH]2)CCNC3=O)n1)c1ccccc1
 | 0.007 µM | Nc1nccc(-c2cc3c([nH]2)CCNC3=O)n1
 | 0.005 µM | Nc1nccc(-c2cc3c(n2CC(F)(F)F)CCNC3=O)n1
